Assay results: patent US6900244B2, “Anilino liver X-receptor modulators” (Pharmacia Corporation, priority 2002, dated 2005)

Row | melting point [°C] | Structure (SMILES)
1 | 103 | CCOC(=O)CC(C)Nc1ccc(C(O)(C(F)(F)F)C(F)(F)F)cc1 (centres unmarked) [Example 1, Ethyl 3-({4-[2,2,2-trifluoro-1-hydroxy-1-(trifluoromethyl)ethyl]phenyl}amino)-butanoate]
2 | 93 | CCOC(=O)C(C)(C)Nc1ccc(C(O)(C(F)(F)F)C(F)(F)F)cc1 [Example 3, Ethyl 2-methyl-N-{4-[2,2,2-trifluoro-1-hydroxy-1-(trifluoromethyl)ethyl]phenyl}-alaninate]
3 | 67 | CCOC(=O)CN(CC(F)(F)F)c1ccc(C(O)(C(F)(F)F)C(F)(F)F)cc1 [Example 5, Ethyl N-(2,2,2-trifluoroethyl)-N-{4-[2,2,2-trifluoro-1-hydroxy-1-(trifluoromethyl)-ethyl]phenyl}glycinate]
4 | 77 | CCOC(=O)CCN(C)c1ccc(C(O)(C(F)(F)F)C(F)(F)F)cc1 [Example 14, Ethyl N-methyl-N-{4-[2,2,2-trifluoro-1-hydroxy-1-(trifluoromethyl)ethyl]phenyl}-beta-alaninate]
5 | 116 | CCOC(=O)CN(Cc1ccccc1)c1ccc(C(O)(C(F)(F)F)C(F)(F)F)cc1 [Example 19, Ethyl N-benzyl-N-{4-[2,2,2-trifluoro-1-hydroxy-1-(trifluoromethyl)ethyl]-phenyl}glycinate]
6 | 146 | CCOC(=O)CN(Cc1ccccc1Cl)c1ccc(C(O)(C(F)(F)F)C(F)(F)F)cc1 [Example 21, Ethyl N-(2-chlorobenzyl)-N-{4-[2,2,2-trifluoro-1-hydroxy-1-(trifluoromethyl)ethyl]phenyl}glycinate]
7 | 55 | CCOC(=O)CN(Cc1cccnc1)c1ccc(C(O)(C(F)(F)F)C(F)(F)F)cc1 [Example 22, Ethyl N-(pyridin-3-ylmethyl)-N-{4-[2,2,2-trifluoro-1-hydroxy-1-(trifluoromethyl)ethyl]phenyl}glycinate]
8 | 66.5 | CCOC(=O)CN1CCCc2cc(C(O)(C(F)(F)F)C(F)(F)F)ccc21 [Example 31, Ethyl [6-[2,2,2-trifluoro-1-hydroxy-1-(trifluoromethyl)ethyl]-3,4-dihydroquinolin-1(2H)-yl]acetate]
9 | 121 | CON(C)C(=O)CN(C)c1ccc(C(O)(C(F)(F)F)C(F)(F)F)cc1 [Example 32, N˜1˜-Methoxy-N˜1˜N˜2˜-dimethyl-N˜2˜-{4-[2,2,2-trifluoro-1-hydroxy-1-(trifluoromethyl)ethyl]phenyl}glycinamide]
10 | 66.5 | CN(CC(=O)OCc1ccc(Cl)cc1)c1ccc(C(O)(C(F)(F)F)C(F)(F)F)cc1 [Example 35, 4-Chlorobenzyl N-methyl-N-{4-[2,2,2-trifluoro-1-hydroxy-1-(trifluoromethyl)-ethyl]phenyl}glycinate]
11 | 149 | CN(CC(=O)N1CCOCC1)c1ccc(C(O)(C(F)(F)F)C(F)(F)F)cc1 [Example 38]
12 | 184 | CN(CC(=O)N1CCCC1)c1ccc(C(O)(C(F)(F)F)C(F)(F)F)cc1 [Example 39]
13 | 111 | CCOC(=O)CN(Cc1ccc(Cl)cc1Cl)c1ccc(C(O)(C(F)(F)F)C(F)(F)F)cc1 [Example 40, Ethyl N-(2,4-dichlorobenzyl)-N-{4-[2,2,2-trifluoro-1-hydroxy-1-(trifluoromethyl)ethyl]phenyl}glycinate]
14 | 81.5 | CCOC(=O)CN(Cc1cccc(Cl)c1)c1ccc(C(O)(C(F)(F)F)C(F)(F)F)cc1 [Example 41, Ethyl N-(3-chlorobenzyl)-N-{4-[2,2,2-trifluoro-1-hydroxy-1-(trifluoromethyl)ethyl]phenyl}glycinate]
15 | 68 | CCOC(=O)CN(Cc1ccc(OC)cc1)c1ccc(C(O)(C(F)(F)F)C(F)(F)F)cc1 [Example 43, Ethyl N-(4-methoxybenzyl)-N-{4-[2,2,2-trifluoro-1-hydroxy-1-(trifluoromethyl)ethyl]phenyl}glycinate]
16 | 107 | CCOC(=O)C1(Nc2ccc(C(O)(C(F)(F)F)C(F)(F)F)cc2)CCC(C(C)(C)C)CC1 (centres unmarked) [Example 49, Ethyl 4-tert-butyl-1-({4-[2,2,2-trifluoro-1-hydroxy-1-(trifluoromethyl)ethyl]phenyl}amino)cyclohexanecarboxylate]
17 | 142.6 | CCOC(=O)C1(Nc2ccc(C(O)(C(F)(F)F)C(F)(F)F)cc2)CCC(C)CC1 (centres unmarked) [Example 50, Ehyl 4-methyl-1-({4-[2,2,2-trifluoro-1-hydroxy-1-(trifluoromethyl)ethyl]phenyl}amino)cyclohexanecarboxylate]
